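These data come from cells grown in 96-well plates and exposed to compound for 48 hours at five concentrations. Abbreviation: GI50, concentration required for 50% inhibition of growth.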 The source made the active and inactive calls. Cut-off read from the data, not from the text of the source: active = GI50 up to about 1.1 µM and inactive = higher.
How the values were obtained:
Assay in all cases: growth of human tumour cells (NCI), 48 h
[1] = system: 786-0
[2] = system: A549
[3] = system: ACHN
[4] = system: BT-549
[5] = system: CAKI-1
[6] = system: COLO 205
[7] = system: DU-145
[8] = system: HCC 2998
[9] = system: HCT-116
[10] = system: HCT-15
[11] = system: HL-60
[12] = system: HOP-62
[13] = system: HOP-92
[14] = system: HT-29
[15] = system: Hs-578T
[16] = system: K562
[17] = system: KM12
[18] = system: LOX IMVI
[19] = system: M14
[20] = system: MCF7
[21] = system: MDA-MB-231
[22] = system: MDA-MB-435
[23] = system: MDA-N
[24] = system: MOLT-4
[25] = system: Malme-3M
[26] = system: NCI-H23
[27] = system: NCI-H522
[28] = system: NCI/ADR-RES
[29] = system: OVCAR-3
[30] = system: OVCAR-4
[31] = system: OVCAR-5
[32] = system: OVCAR-8
[33] = system: PC-3
[34] = system: RPMI-8226
[35] = system: SF-268
[36] = system: SF-295
[37] = system: SF-539
[38] = system: SK-MEL-28
[39] = system: SK-MEL-5
[40] = system: SK-OV-3
[41] = system: SN12C
[42] = system: SNB-19
[43] = system: SNB-75
[44] = system: SR
[45] = system: SW-620
[46] = system: TK-10
[47] = system: U-251
[48] = system: UACC-257
[49] = system: A498
[50] = system: CCRF-CEM
[51] = system: EKVX
[52] = system: IGROV-1
[53] = system: NCI-H226
[54] = system: SK-MEL-2
[55] = system: UACC-62
[56] = system: UO-31
[57] = system: NCI-H460
[58] = system: RXF 393

Measured: GI50

COc1nc(N)c(C#N)c(C#N)c1C#N
> 10 µM: [10]
inactive: [1] > 10 µM | [2] > 10 µM | [3] > 10 µM | [4] > 10 µM | [5] > 10 µM | [6] > 10 µM | [7] > 10 µM | [8] > 10 µM | [9] > 10 µM | [11] > 10 µM | [12] > 10 µM | [13] > 10 µM | [14] > 10 µM | [15] > 10 µM | [16] > 10 µM | [17] > 10 µM | [18] > 10 µM | [19] > 10 µM | [20] > 10 µM | [21] > 10 µM | [22] > 10 µM | [23] > 10 µM | [24] > 10 µM | [25] > 10 µM | [26] > 10 µM | [27] > 10 µM | [28] > 10 µM | [29] > 10 µM | [30] > 10 µM | [31] > 10 µM | [32] > 10 µM | [33] > 10 µM | [34] > 10 µM | [35] > 10 µM | [36] > 10 µM | [37] > 10 µM | [38] > 10 µM | [39] > 10 µM | [40] > 10 µM | [41] > 10 µM | [42] > 10 µM | [43] > 10 µM | [44] > 10 µM | [45] > 10 µM | [46] > 10 µM | [47] > 10 µM | [48] > 10 µM

O=C(O)C(C(C(=O)O)P(=O)(O)O)P(=O)(O)O (stereo not drawn)
inactive: [1] > 100 µM | [49] > 100 µM | [2] > 100 µM | [3] > 100 µM | [4] > 100 µM | [50] > 100 µM | [6] > 100 µM | [7] > 100 µM | [51] > 100 µM | [8] > 100 µM | [9] > 100 µM | [11] > 100 µM | [13] 86.1 µM | [14] > 100 µM | [15] > 100 µM | [52] > 100 µM | [16] > 100 µM | [17] > 100 µM | [18] > 100 µM | [19] > 100 µM | [20] > 100 µM | [22] > 100 µM | [23] > 100 µM | [24] > 100 µM | [25] > 100 µM | [53] > 100 µM | [29] > 100 µM | [30] > 100 µM | [31] > 100 µM | [32] > 100 µM | [33] > 100 µM | [34] > 100 µM | [35] > 100 µM | [37] > 100 µM | [38] > 100 µM | [54] > 100 µM | [39] > 100 µM | [40] > 100 µM | [42] > 100 µM | [43] > 100 µM | [44] > 100 µM | [45] > 100 µM | [46] > 100 µM | [47] > 100 µM | [55] > 100 µM | [56] > 100 µM
> 100 µM: [10]

c1ccc2sc(C3(N4CCCCCC4)CCCCC3)cc2c1
inactive: [1] 19.1 µM | [49] 18.1 µM | [2] 35.2 µM | [3] 30.8 µM | [4] 25 µM | [5] 36.5 µM | [50] 16.7 µM | [6] 16 µM | [7] 29.4 µM | [51] 22.8 µM | [8] 15.5 µM | [9] 20.3 µM | [11] 24.2 µM | [12] 26.2 µM | [13] 17.6 µM | [14] 15.3 µM | [15] 22.4 µM | [52] 36.1 µM | [16] 16.7 µM | [17] 16.1 µM | [18] 20.6 µM | [19] 19.3 µM | [20] 17.8 µM | [21] 27.8 µM | [22] 25.3 µM | [23] 28.9 µM | [24] 15.6 µM | [53] 22.6 µM | [26] 20 µM | [57] 18.8 µM | [27] 21.1 µM | [28] 21.8 µM | [29] 16.3 µM | [30] 28.4 µM | [31] 17.8 µM | [32] 29.5 µM | [58] 17.7 µM | [35] 25.8 µM | [36] 20.1 µM | [37] 23.4 µM | [38] 26.1 µM | [39] 17.5 µM | [40] 29 µM | [41] 20.6 µM | [42] 18.7 µM | [43] 23.8 µM | [45] 18.2 µM | [46] 22.8 µM | [47] 19.2 µM | [48] 21.5 µM | [55] 20.4 µM | [56] 20.3 µM
22.3 µM: [10]

— ChEMBL document CHEMBL1201862, “PubChem BioAssay data set” (2004)
